Measurements: publication PMC9497102, “Thiosemicarbazone Derivatives Developed to Overcome COTI-2 Resistance” (Cancers, 2022)
Values after ≈ are worked out from the molar mass of the structure shown. Where two headings read alike, the source gives them in different places.

What was measured:
[1] = Thermodynamic solubility in water at pH 7.4 (UV-vis); type: physicochemical; conditions: water at pH 7.4 (20 mM HEPES buffer), aqueous buffer, thermodynamic from solid, water pH 7.4 (20 mM HEPES), 25 °C, read-out: S (meas.)
Method: The thermodynamic solubility of COTI-NMeCy, COTI-Nme2, COTI-NH2, and COTI-2 was measured for the saturated solutions in water at pH 7.4 (20 mM HEPES buffer) at 25.0 ± 0.1 °C. The concentrations of the compounds were determined by UV-vis spectrophotometry using stock solutions of the compounds with known concentrations dissolved in pure DMSO, and 50% and 1% (v/v) DMSO/buffered aqueous solution for the calibration. The parallel artificial membrane permeability assay (PAMPA) was applied for the ligands with a Corning Gentest pre-coated PAMPA Plate System. Peff values were calculated according to the equation reported by Yu et al..

[2] = Spectrophotometric redox reaction of copper(II) complexes with GSH or AA; type: physicochemical; conditions: 300 equiv. GSH, pH 7.4, after formation of mixed-ligand GSH adduct
Method: A Hewlett Packard 8452A diode array spectrophotometer and a special, tightly closed tandem cuvette (Hellma Tandem Cell, 238-QS) were used to monitor the redox reactions of the Cu(II) and Fe(III) complexes with GSH and AA. The spectra were recorded at a physiological pH (pH = 7.4, 50 mM HEPES, I = 0.1 M KCl) when the metal complexes:GSH or AA ratio was 1:300 (ccomplex = 30 μM, cGSH or AA = 9 mM). The stock solutions of the complexes and the GSH and AA solutions were freshly prepared before every measurement. In the first half of the cuvette, the ligand was mixed with the complex, and the other contained the reducing agent. Both isolated parts of the cuvette were deoxygenated with argon for 10 min. The first spectrum was recorded before mixing, and then after mixing, the reduction was usually followed until no further absorbance change was observed.

SW480 cells [3] = test: Cell cycle analysis by PI staining and flow cytometry; type: cell-based, human; conditions: 24 h
Method: The cell cycle phases were analyzed by staining the DNA of ethanol-fixed cells with PI, as previously described. SW480 and SW480/Coti cells were seeded at a density of, 2 × 10^5 cells/well in 6-well plates and treated with the indicated concentrations of COTI-2 and COTI-NMe2 for 24 h. Then, cells were collected by trypsinization and fixed in cold 70% ethanol. In order to digest RNA, the cells were treated with RNase (0.2 mg/mL, Sigma) and, subsequently, DNA was stained with PI (1 µg/mL). Fluorescence was measured by flow cytometry (FACS Calibur, Becton Dickinson, Ashland, CA, USA) and cell cycle phases were analyzed using Cell Quest Pro software.

SW480/Tria cells = test: MTT viability assay, 72 h; type: cell-based, human; conditions: for IC50: Homo sapiens, SW480, 72 h, MTT; for Relative Resistance SW480/Tria: IC50 of resistant subline divided by IC50 of parental SW480
Method: (§1) In vitro tests were performed with human colorectal cancer SW480 cells (purchased from the American Type Culture Collection, Manassas, VA, USA), SW480/Tria, and the SW480/Coti cells, which are previously established sublines that are resistant to Triapine and COTI-2 [16], respectively. Additionally, small-cell lung carcinoma GLC-4 and its subline GLC-4/adr, which is a doxorubicin-resistant subline overexpressing ABCC1 (purchased from Dr. […], Groningen, The Netherlands), were used. All cells were maintained in a humidified 5% CO2 incubator at 37 °C and grown in minimal essential medium or RPMI-1640, respectively, supplemented with 10% fetal bovine serum (FBS). In order to maintain the resistant phenotype of GLC-4/adr cells, they were selected with doxorubicin (1152 nM) once a month. All cell lines were tested for mycoplasma contamination. For the cytotoxicity, cell viability, and proliferation studies, the 3-(4,5-dimethylthiazol-2-yl)-2,5-diphenyltetrazolium bromide (MTT) assay was utilized. Cells were seeded in 96-well plates at a density of 2 × 10^4 cells/well, with the exception of SW480/Tria, which was used at a density of 3 × 10^4 cells/well. After 24 h of recovery, cells were treated with the indicated concentration of drugs. For the drug combination experiments, verapamil and cyclosporine A (CSA) were used as ABCC1 modulators, and tetrathiomolybdate (TTM) was used as a copper chelator. The TSCs were dissolved in DMSO followed by subsequent dilutions in the medium in order to maintain a final DMSO concentration of <1%. After 72 h, the treatment solution was removed and replaced with 100 μL of MTT solution (EZ4U, Biomedica, Vienna, Austria), which was diluted 1:10 in the growth medium. A TECAN Infinite 200 Pro plate reader was used to measure the absorbance of the solution after 2-3 h incubation at 5% CO2 in an incubator at 37 °C. The anticancer activity was determined with GraphPad Prism software and indicated as IC50 values (half maximum inhibitory concentration).

SW480 cells [4] = test: MTT viability assay, 72 h; type: cell-based, human; conditions: for IC50: Homo sapiens, SW480, MTT; for enhancement of cytotoxicity by copper complexation: copper complex vs. ligand
Method: as §1

[5] = pKa by UV-vis spectrophotometric titrations; type: physicochemical; conditions: 30% (v/v) DMSO/H2O solution, I = 0.1 M (KCl), 25 °C
Method: The UV-vis spectra were recorded using an Agilent Cary 8454 diode array spectrophotometer in the 200 to 950 nm window, and the path length was varied between 1 and 5 cm, depending on the solubility (thus the applicable concentration). For the spectrophotometric titrations, the same instruments (Metrohm 665 Dosimat burette, Orion 710A pH-meter, Metrohm combined pH glass electrode) and experimental setup (ionic strength: 0.10 M (KCl); titrant: 0.10 M carbonate-free KOH solution in 30% (v/v) DMSO/H2O; samples: prepared in 30% (v/v) DMSO/H2O; calibration: method of Irving et al.; pH range: 1.0 to 13.5; and sample volume: 10 cm^3) were used as in our previous work. Argon overpressure was used for the Fe(II)-containing samples when the Fe(II) stock solution was added to the samples in tightly closed titration vessels, which were previously completely deoxygenated (for 20 min). Measurements were taken with ligands (10–80 μM, depending on solubility) in the presence of 1, 0.5, and 0.3 equiv. of Cu(II), Fe(II), and Fe(III) ions. Equilibrium constants, such as the proton dissociation constants (pKa) of the ligands, the overall stability constants (logβ) of the metal complexes, and the UV-vis spectra of the individual ligand or complex species were computed using the program PSEQUAD [18], as was the case in our previous works.

| solubility thermodynamic [1] [µM] | redox reaction of the copper(II) complex with GSH [2] | IC50 (SW480/Tria cells) [nM] | IC50 (SW480 cells [4]; 72 h) [nM] | lower IC50 value than the other tested COTI-2 derivatives (SW480 cells [4]; SW480 cells) | lower IC50 value than COTI-2 (SW480 cells [4]; SW480 cells, 72 h) [fold] | pKa ([5]; read-out: pKa (H2L)) | pKa ([5]; read-out: pKa (HL)) | pKa ([5]; read-out: pKa (H3L)) | Structure (SMILES) | effect on G2/M population (SW480 cells [3]) | Relative Resistance SW480/Tria (SW480/Tria cells) | enhancement of cytotoxicity by copper complexation (SW480 cells [4]; SW480 cells, 72 h) |
| --- | --- | --- | --- | --- | --- | --- | --- | --- | --- | --- | --- | --- |
| 417 | no measurable spectral changes were seen | 40 ± 20 | 40 ± 10 | ~ 10 fold | 11 | 3.65 ± 0.01 | 12.09 ± 0.01 | – | CN(C)C(=S)NN=C1CCCc2cccnc21 (mixture of isomers) [COTI-NMe2, 2-(6,7-Dihydroquinolin-8(5H)-ylidene)-N^4,N^4-dimethylhydrazine-1-carbothioamide] | significant reduction in the G2/M population | 1.0 ^n.s. | – |
| 0.41 (≈ 0.15 µg/mL) | – | – | 370 ± 170 | – | – | 5.08 ± 0.01 | 10.97 ± 0.01 | 3.23 ± 0.01 | S=C(N/N=C1\CCCc2cccnc21)N1CCN(c2ccccn2)CC1 [COTI-2, 4-(pyridine-2-yl)-N-([(8E)-5,6,7,8-tetrahydroquinolin-8-ylidene]amino)piperazine-1-carbothioamide] | significant reduction in the G2/M population | 1.1 ^n.s. | 7–8 fold |
| 3.9 (≈ 1.23 µg/mL) | no measurable spectral changes were seen | 710 ± 170 | 640 ± 100 | – | – | 3.47 ± 0.01 | 12.4 ± 0.01 | – | CN(C(=S)N/N=C1\CCCc2cccnc21)C1CCCCC1 [COTI-NMeCy, N-Cyclohexyl-2-(6,7-dihydroquinolin-8(5H)-ylidene)-N^4-methylhydrazine-1-carbothioamide] | – | 1.1 ^n.s. | 7–8 fold |
